Laboratory results reported in patent US10695337B2, “Piperidin-4-yl azetidine derivatives as JAK1 inhibitors” (Incyte Corporation, priority 2010, dated 2020).

Biological target: human JAK1 (a.a. 837-1142)
Assay: In vitro JAK kinase assay (HTRF, phosphorylation of a biotinylated peptide), JAK1
Format: biochemical
Settings: measured at 1 mM ATP; JAK2 IC50 / JAK1 IC50
How it was run: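 N-terminal His-tagged catalytic domains, baculovirus-expressed in insect cells, phosphorylated a biotinylated peptide for 1 hr at room temperature. EDTA stop was followed by SA-APC and Eu-Py20 antibody for 40 minutes, with phosphopeptide read by HTRF.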

Structure (SMILES)	IC50 Ratio JAK2/JAK1
N#CCC1(n2cc(-c3ncnc4[nH]ccc34)cn2)CN(C2CCN(C(=O)Nc3ccsc3)CC2)C1 [Example 179, 4-{3-(cyanomethyl)-3-[4-(7H-pyrrolo[2,3-d]pyrimidin-4-yl)-1H-pyrazol-1-yl]azetidin-1-yl}-N-3-thienylpiperidine-1-carboxamide]	3.8
COc1ccccc1NC(=O)N1CCC(N2CC(CC#N)(n3cc(-c4ncnc5[nH]ccc45)cn3)C2)CC1 [Example 180, 4-{3-(cyanomethyl)-3-[4-(7H-pyrrolo[2,3-d]pyrimidin-4-yl)-1H-pyrazol-1-yl]azetidin-1-yl}-N-(2-methoxyphenyl)piperidine-1-carboxamide]	4.0
COc1cccc(NC(=O)N2CCC(N3CC(CC#N)(n4cc(-c5ncnc6[nH]ccc56)cn4)C3)CC2)c1 [Example 181, 4-{3-(cyanomethyl)-3-[4-(7H-pyrrolo[2,3-d]pyrimidin-4-yl)-1H-pyrazol-1-yl]azetidin-1-yl}-N-(3-methoxyphenyl)piperidine-1-carboxamide]	4.9
N#CCC1(n2cc(-c3ncnc4[nH]ccc34)cn2)CN(C2CCN(C(=O)Nc3ccc(OC(F)(F)F)cc3)CC2)C1 [Example 182, 4-{3-(cyanomethyl)-3-[4-(7H-pyrrolo[2,3-d]pyrimidin-4-yl)-1H-pyrazol-1-yl]azetidin-1-yl}-N-[4-(trifluoromethoxy)phenyl]piperidine-1-carboxamide]	3.7
N#CCC1(n2cc(-c3ncnc4[nH]ccc34)cn2)CN(C2CCN(C(=O)Nc3cccc(Cl)c3)CC2)C1 [Example 183, N-(3-chlorophenyl)-4-{3-(cyanomethyl)-3-[4-(7H-pyrrolo[2,3-d]pyrimidin-4-yl)-1H-pyrazol-1-yl]azetidin-1-yl}piperidine-1-carboxamide]	3.8
N#CCC1(n2cc(-c3ncnc4[nH]ccc34)cn2)CN(C2CCN(C(=O)Nc3ccc(Cl)cc3)CC2)C1 [Example 184, N-(4-chlorophenyl)-4-{3-(cyanomethyl)-3-[4-(7H-pyrrolo[2,3-d]pyrimidin-4-yl)-1H-pyrazol-1-yl]azetidin-1-yl}piperidine-1-carboxamide]	3.9
Cc1ccccc1NC(=O)N1CCC(N2CC(CC#N)(n3cc(-c4ncnc5[nH]ccc45)cn3)C2)CC1 [Example 185, 4-{3-(cyanomethyl)-3-[4-(7H-pyrrolo[2,3-d]pyrimidin-4-yl)-1H-pyrazol-1-yl]azetidin-1-yl}-N-(2-methylphenyl) piperidine-1-carboxamide]	9.5
COc1ccc(OC)c(NC(=O)N2CCC(N3CC(CC#N)(n4cc(-c5ncnc6[nH]ccc56)cn4)C3)CC2)c1 [Example 186, 4-{3-(cyanomethyl)-3-[4-(7H-pyrrolo[2,3-d]pyrimidin-4-yl)-1H-pyrazol-1-yl]azetidin-1-yl}-N-(2,5-dimethoxyphenyl)piperidine-1-carboxamide]	5.5
Cc1ccc(NC(=O)N2CCC(N3CC(CC#N)(n4cc(-c5ncnc6[nH]ccc56)cn4)C3)CC2)c(C)n1 [Example 189, 4-{3-(cyanomethyl)-3-[4-(7H-pyrrolo[2,3-d]pyrimidin-4-yl)-1H-pyrazol-1-yl]azetidin-1-yl}-N-(2,6-dimethylpyridin-3-yl)piperidine-1-carboxamide]	3.5
N#CCC1(n2cc(-c3ncnc4[nH]ccc34)cn2)CN(C2CCN(C(=O)Nc3nccs3)CC2)C1 [Example 190, 4-{3-(cyanomethyl)-3-[4-(7H-pyrrolo[2,3-d]pyrimidin-4-yl)-1H-pyrazol-1-yl]azetidin-1-yl}-N-1,3-thiazol-2-ylpiperidine-1-carboxamide]	2.1
Cc1csc(NC(=O)N2CCC(N3CC(CC#N)(n4cc(-c5ncnc6[nH]ccc56)cn4)C3)CC2)n1 [Example 191, 4-{3-(cyanomethyl)-3-[4-(7H-pyrrolo[2,3-d]pyrimidin-4-yl)-1H-pyrazol-1-yl]azetidin-1-yl}-N-(4-methyl-1,3-thiazol-2-yl)piperidine-1-carboxamide]	1.4
